Target: T1, PARK7 (Homo sapiens, UniProt Q99497)
T1 sequence (Q99497 1-189): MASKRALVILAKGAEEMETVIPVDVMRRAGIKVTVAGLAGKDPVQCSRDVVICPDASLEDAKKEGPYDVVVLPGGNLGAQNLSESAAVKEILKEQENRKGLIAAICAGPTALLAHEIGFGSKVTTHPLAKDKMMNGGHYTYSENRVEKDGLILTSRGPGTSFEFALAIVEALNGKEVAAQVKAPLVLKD
Test: High-throughput screen of the crude compound library, PARK7 fluorescence polarization (FP) assay with FP reagent JYQ-107
Assay type: biochemical
Conditions: 1.25 µM, crude compound library; read-out: HTS FP assay %Inhibition (1.25 µM)
Source text: Therefore, taking JYQ-88 as a starting point, we conducted an optimization to further improve the molecule in terms of inhibitory potency, specificity, and cellular uptake. […] First, a small tailored library was designed and synthesized to investigate whether the introduction of larger, hydrophilic substituents on JYQ-88 would enhance the interaction with the PARK7 pocket. […] The second approach involved the generation of a compound library containing diverse substituents at the azidomethyl position. […] We next performed a high-throughput screen of this crude compound library using our in-house developed PARK7 fluorescence polarization (FP) assay.[15]

SMILES	inhibition at 1.25 µM [%]
Cn1cc(S(=O)(=O)NCc2ccco2)cc1C(=O)N1CCc2nc(NC(=O)[C@@H]3CCN(C#N)C3)sc2C1 [compound 73]	82.4
N#CN1CC[C@@H](C(=O)Nc2nc3c(s2)CN(C(=O)Cc2cccc(OCc4ccccn4)c2)CC3)C1 [compound 74]	82.1
Cc1nc(-c2ncccn2)sc1C(=O)N1CCc2nc(NC(=O)[C@@H]3CCN(C#N)C3)sc2C1 [compound 75]	72
N#CN1CC[C@@H](C(=O)Nc2nc3c(s2)CN(C(=O)c2cn(CC(=O)N4CCCC4)nn2)CC3)C1 [compound 77]	84.1
COc1ccccc1-c1nnc(CC(=O)N2CCc3nc(NC(=O)[C@@H]4CCN(C#N)C4)sc3C2)o1 [compound 78]	74.3
Cc1ccc(N(CCC(=O)N2CCc3nc(NC(=O)[C@@H]4CCN(C#N)C4)sc3C2)S(=O)(=O)c2ccccc2)cc1 [compound 79]	87.6
Cn1nccc1[C@@H]1OCCC[C@H]1C(=O)N1CCc2nc(NC(=O)[C@@H]3CCN(C#N)C3)sc2C1 [compound 80]	68.5
N#CN1CC[C@@H](C(=O)Nc2nc3c(s2)CN(C(=O)c2cc(-c4ccc(Br)cc4)ns2)CC3)C1 [compound 81]	80.2
Cn1ncc(C2CC2)c1C(=O)N1CCc2nc(NC(=O)[C@@H]3CCN(C#N)C3)sc2C1 [compound 82]	71.4
N#CN1CC[C@@H](C(=O)Nc2nc3c(s2)CN(C(=O)c2noc(-c4cccc(Cl)c4)n2)CC3)C1 [compound 85]	63
Cc1c(S(=O)(=O)N2CCC(C(=O)N3CCc4nc(NC(=O)[C@@H]5CCN(C#N)C5)sc4C3)CC2)cnn1C [compound 86]	70.5
Cc1nnnn1-c1cc(C(=O)N2CCc3nc(NC(=O)[C@@H]4CCN(C#N)C4)sc3C2)cc(C(F)(F)F)c1 [compound 87]	86.5
CC1CCN(c2ncc(C(=O)N3CCc4nc(NC(=O)[C@@H]5CCN(C#N)C5)sc4C3)s2)CC1 [compound 88]	77.3
N#CN1CC[C@@H](C(=O)Nc2nc3c(s2)CN(C(=O)C2CCN(c4ccc(=O)[nH]n4)CC2)CC3)C1 [compound 89]	68.2
N#CN1CC[C@@H](C(=O)Nc2nc3c(s2)CN(C(=O)c2cnn(CC4CCCCO4)c2)CC3)C1 (some centres unmarked) [compound 90]	81.3
Cc1cc(C(=O)N2CCc3nc(NC(=O)[C@@H]4CCN(C#N)C4)sc3C2)c(C2CC2)s1 [compound 91]	82.6
N#CN1CC[C@@H](C(=O)Nc2nc3c(s2)CN(C(=O)c2ccc(-n4ccnc4)nn2)CC3)C1 [compound 92]	64.4
N#CN1CC[C@@H](C(=O)Nc2nc3c(s2)CN(C(=O)c2c(-c4ccccc4)noc2C(F)F)CC3)C1 [compound 93]	60.9
N#CN1CC[C@@H](C(=O)Nc2nc3c(s2)CN(C(=O)C2(c4ccccc4Cl)CCOCC2)CC3)C1 [compound 94]	65.7
Cc1noc(C)c1Cc1ccc(C(=O)N2CCc3nc(NC(=O)[C@@H]4CCN(C#N)C4)sc3C2)o1 [compound 95]	81.3
Cc1cc(NS(=O)(=O)c2cccc(C(=O)N3CCc4nc(NC(=O)[C@@H]5CCN(C#N)C5)sc4C3)c2)no1 [compound 96]	77.9

SMILES	inhibition at 1.25 µM [%]
CN1CCN(C(=O)C2CC=CCC2C(=O)N2CCc3nc(NC(=O)[C@@H]4CCN(C#N)C4)sc3C2)CC1 (some centres unmarked) [compound 97]	72.8
N#CN1CC[C@@H](C(=O)Nc2nc3c(s2)CN(C(=O)c2ccc(S(=O)(=O)N4CCOCC4)cc2)CC3)C1 [compound 98]	78.4
N#CN1CC[C@@H](C(=O)Nc2nc3c(s2)CN(C(=O)Cc2csc(-n4cccc4)n2)CC3)C1 [compound 99]	86.7
Cc1cc(-c2nc(C)sc2CC(=O)N2CCc3nc(NC(=O)[C@@H]4CCN(C#N)C4)sc3C2)c(C)s1 [compound 100]	75.4
N#CN1CC[C@@H](C(=O)Nc2nc3c(s2)CN(C(=O)C2CC(=O)N(CCOc4ccccc4Cl)C2)CC3)C1 (some centres unmarked) [compound 101]	79.1
N#CN1CC[C@@H](C(=O)Nc2nc3c(s2)CN(C(=O)c2ccc(-n4ncc(Cl)c(Cl)c4=O)cc2)CC3)C1 [compound 102]	69.3
N#CN1CC[C@@H](C(=O)Nc2nc3c(s2)CN(C(=O)c2ccc(CN4CCOCC4)cc2)CC3)C1 [compound 103]	86.4
N#CN1CC[C@@H](C(=O)Nc2nc3c(s2)CN(C(=O)c2cnc(-c4ccco4)s2)CC3)C1 [compound 104]	62.8
N#CN1CC[C@@H](C(=O)Nc2nc3c(s2)CN(C(=O)Cc2csc(-c4cccs4)n2)CC3)C1 [compound 105]	85.3
N#CN1CC[C@@H](C(=O)Nc2nc3c(s2)CN(C(=O)c2csc(-c4ccccn4)n2)CC3)C1 [compound 106]	85.1
Cc1noc(C)c1COc1ccc(CC(=O)N2CCc3nc(NC(=O)[C@@H]4CCN(C#N)C4)sc3C2)cc1 [compound 107]	82.7
N#CN1CC[C@@H](C(=O)Nc2nc3c(s2)CN(C(=O)CC2=NN(c4ncc(C(F)(F)F)cc4Cl)C(=O)C2)CC3)C1 [compound 109]	68.1
N#CN1CC[C@@H](C(=O)Nc2nc3c(s2)CN(C(=O)c2occc2COc2ccccc2)CC3)C1 [compound 111]	82.9
N#CN1CC[C@@H](C(=O)Nc2nc3c(s2)CN(C(=O)C2CCN(C(=O)CCOc4ccccc4)CC2)CC3)C1 [compound 113]	68.7
Cn1cc(S(=O)(=O)N2CCCC(C(=O)N3CCc4nc(NC(=O)[C@@H]5CCN(C#N)C5)sc4C3)C2)cn1 (some centres unmarked) [compound 114]	68.2
N#CN1CC[C@@H](C(=O)Nc2nc3c(s2)CN(C(=O)c2cc(S(=O)(=O)N4CCOCC4)c[nH]2)CC3)C1 [compound 115]	81
COc1ccc(OCc2cc(C)on2)c(C(=O)N2CCc3nc(NC(=O)[C@@H]4CCN(C#N)C4)sc3C2)c1 [compound 116]	81.9
N#CN1CC[C@@H](C(=O)Nc2nc3c(s2)CN(C(=O)C2CC(=O)N(CCN4CCOCC4)C2)CC3)C1 (some centres unmarked) [compound 117]	71.4
N#CN1CC[C@@H](C(=O)Nc2nc3c(s2)CN(C(=O)Cc2cccc(OCc4cccnc4)c2)CC3)C1 [compound 118]	83.7
CN(Cc1cccnc1)S(=O)(=O)c1cc(C(=O)N2CCc3nc(NC(=O)[C@@H]4CCN(C#N)C4)sc3C2)n(C)c1 [compound 119]	71.9
Cc1n[nH]c(C)c1S(=O)(=O)N1CCC(C(=O)N2CCc3nc(NC(=O)[C@@H]4CCN(C#N)C4)sc3C2)CC1 [compound 120]	46.4

SMILES	inhibition at 1.25 µM [%]
N#CN1CC[C@@H](C(=O)Nc2nc3c(s2)CN(C(=O)c2occc2CN2CCOCC2)CC3)C1 [compound 122]	70.9
N#CN1CC[C@@H](C(=O)Nc2nc3c(s2)CN(C(=O)c2ccc(COc4ccccc4Br)cc2)CC3)C1 [compound 123]	67.6
N#CN1CC[C@@H](C(=O)Nc2nc3c(s2)CN(C(=O)c2cccc(-c4cnco4)c2)CC3)C1 [compound 124]	85.6
N#CN1CC[C@@H](C(=O)Nc2nc3c(s2)CN(C(=O)c2ccc(N4NC(=O)CCC4=O)cc2)CC3)C1 [compound 125]	85.7
Cc1nc(C(=O)N2CCc3nc(NC(=O)[C@@H]4CCN(C#N)C4)sc3C2)co1 [compound 126]	70.6
N#CN1CC[C@@H](C(=O)Nc2nc3c(s2)CN(C(=O)c2ccc(=O)n(Cc4ccccc4)n2)CC3)C1 [compound 127]	83.8
Cc1nc(-c2cccnc2)sc1C(=O)N1CCc2nc(NC(=O)[C@@H]3CCN(C#N)C3)sc2C1 [compound 128]	76.5
CN1CCN(C(=O)c2ccccc2C(=O)N2CCc3nc(NC(=O)[C@@H]4CCN(C#N)C4)sc3C2)CC1 [compound 129]	71.3
Cc1cc(C(=O)N2CCc3nc(NC(=O)[C@@H]4CCN(C#N)C4)sc3C2)c(C)n1-c1ccon1 [compound 130]	76.2
N#CN1CC[C@@H](C(=O)Nc2nc3c(s2)CN(C(=O)c2ccnn2C2CCOCC2)CC3)C1 [compound 132]	73.2
Cn1nc(C(=O)N2CCOCC2)cc1C(=O)N1CCc2nc(NC(=O)[C@@H]3CCN(C#N)C3)sc2C1 [compound 134]	87.6
Cc1nn(C2CCOCC2)c(C)c1C(=O)N1CCc2nc(NC(=O)[C@@H]3CCN(C#N)C3)sc2C1 [compound 135]	63
N#CN1CC[C@@H](C(=O)Nc2nc3c(s2)CN(C(=O)C2CCOC4(CCC4)C2)CC3)C1 (some centres unmarked) [compound 136]	80.8
N#CN1CC[C@@H](C(=O)Nc2nc3c(s2)CN(C(=O)c2cnn(CCN4CCCC4)c2)CC3)C1 [compound 137]	70.1
N#CN1CC[C@@H](C(=O)Nc2nc3c(s2)CN(C(=O)C2(c4cccs4)CC2)CC3)C1 [compound 138]	81.9
N#CN1CC[C@@H](C(=O)Nc2nc3c(s2)CN(C(=O)C(c2ccccc2)n2cnnn2)CC3)C1 (some centres unmarked) [compound 141]	59.5
Cc1csc(N2CCCC(C(=O)N3CCc4nc(NC(=O)[C@@H]5CCN(C#N)C5)sc4C3)C2)n1 (some centres unmarked) [compound 142]	85.9
CC(C(=O)N1CCc2nc(NC(=O)[C@@H]3CCN(C#N)C3)sc2C1)n1nc(C(F)(F)F)cc1C1CC1 (some centres unmarked) [compound 143]	64.1
N#CN1CC[C@@H](C(=O)Nc2nc3c(s2)CN(C(=O)C2CCCN2C(=O)Cc2ccccc2)CC3)C1 (some centres unmarked) [compound 144]	78.4
N#CN1CC[C@@H](C(=O)Nc2nc3c(s2)CN(C(=O)CC2(n4cccc4)CCCCC2)CC3)C1 [compound 145]	83.7
